Experimental data as given in US20220087960A1, “Oral Pharmaceutical Immediate Release Composition” (Aardvark Therapeutics Inc., priority 2020, published 2022).

Legend:
[1] = in vivo; conditions: both, Sprague Dawley, rat, po
Experimental: (§1) The drugs were administered to Sprague Dawley rats with a 14-day observational period. Twenty-four Male Sprague Dawley (SD) rats and 24 female SD rats were purchased from Envigo at 8-10 weeks of age. The DA group had four dose levels (120, 360, 1000, and 2000 mg/kg, single administration by oral gavage), 3 rats per sex, 6 animals in total per dose level; and the DB group: four dose levels (120, 360, 1000, and 2000 mg/kg, single administration by oral gavage), 3 rats per sex, 6 animals in total per dose level. The estimated median lethal dose (LD50) was determined by a nonlinear regression [model: Y=100/(1+10^(LogEC50-X)), Hill slope=1.0) to calculate LD50.

[2] = tested on: Sprague Dawley rats; test: in vivo; conditions: rat, po
Experimental: as §1

[3] = tested on: male Sprague Dawley rats; test: 24 hour food intake study in rats comparing DA to DB (Example 4); type: in vivo, rat; conditions: gavage, DA high dose 23.1 mg/kg
Experimental: This example provides a 24 hour study comparing DA to DB is rats (male Sprague Dawley, Charles River) over a 24 hour period. The […] of 15 rats each were vehicle controlled distilled water gavage QID, DB at a dose of 26.8 mg/kg gavage QID, DA low dose 2.9 mg/kg gavage QD, and DA high dose 23.1 mg/kg gavage QD. Food intake at 2 hr, 4 hr, 6 hr, 8 hr and 24 hr after administration was measured.

[4] = tested on: male SD rats; test: Single oral dose food intake study, 24-hour observational period (Example 6, first in vivo study); parameters: species or system rat
Experimental: This example compares efficacy of DA versus DB in food inhibition and body weight control. As a background, according to Avau et al., Sci. Rep. […] In our first in vivo study, 45 male SD rats (purchased from Envigo at 8-10 weeks of age) were divided into three groups (15 in each group), which were administered a single oral dose of vehicle (distilled water), 26.8 mg/kg of DB, or 23.1 mg/kg of DA respectively, with a 24-hour observational period, to compare the efficacy of DB versus DA in reducing food intake. Table 4. Mean cumulative food intake during 24-h observational period

[5] = tested on: male C57BL/6N DIO mice; test: 56-day BID treatment, food consumption and body weight in DIO mice (Example 6, second in vivo study); parameters: species or system mouse
Experimental: In a second in vivo study, 45 male C57BL/6N DIO mice (purchased from Envigo at 18 weeks of age, fed with high-fat diet) were divided into three groups (15 in each group), which were orally administered vehicle (distilled water), 26.8 mg/kg of DB, or 23.1 mg/kg of DA respectively, twice daily (BID), with a 56-day treatment period to compare the efficacy of DB versus DA in food intake reduction and body weight control. Briefly, once weekly, the food weight for each cage was recorded at 0 hour and then 24 hours later, permitting calculation of food consumption for that 24-hour interval. In addition, starting from Day 0, the mice were weighed three times weekly (every 2-3 days).

In the case of `CC(=O)[O-].CC[N+](CC)(CC(=O)Nc1c(C)cccc1C)Cc1ccccc1` [DA, Denatonium acetate], the LD50 at 14 day [1] is reported as 945 mg/kg, the MTD at 14 day [1] is reported as 360 mg/kg and the Mortality rate ([2]; both, 120 mg/kg, 14 day) is reported as 0%. It also gave a Mortality rate ([2]; both, 360 mg/kg, 14 day) of 0%, a Mortality rate ([2]; both, 1000 mg/kg, 14 day) of 50% and a Mortality rate ([2]; both, 2000 mg/kg, 14 day) of 100%. The “Estimated LD50” value ([2]; both, 14 day) was 945 mg/kg, the “No. of animals died within 24 h post dosing” value ([2]; female, 120 mg/kg) was 0 and the “No. of animals died within 24 h post dosing” value ([2]; female, 360 mg/kg) was 0. The “No. of animals died within 24 h post dosing” value ([2]; female, 1000 mg/kg) was 3, the “No. of animals died within 24 h post dosing” value ([2]; female, 2000 mg/kg) was 3 and the “No. of animals died within 24 h post dosing” value ([2]; male, 120 mg/kg) was 0. For the same molecule, the “No. of animals died within 24 h post dosing” value ([2]; male, 360 mg/kg) was 0, the “No. of animals died within 24 h post dosing” value ([2]; male, 1000 mg/kg) was 0 and the “No. of animals died within 24 h post dosing” value ([2]; male, 2000 mg/kg) was 3. For the same molecule, the “cumulative food consumption over 24 hours (FIG. 5)” value [3] was “largest impact”, the “food intake reduction, DA compared with DB” value ([4]; 23.1 mg/kg DA vs 26.8 mg/kg DB) was “a greater food intake reduction” and the “Mean cumulative food intake 0-2 h” value ([4]; single oral dose (DA 23.1 mg/kg, DB 26.8 mg/kg), 0-2 h, N = 15) was 4.7 gram. The “Mean cumulative food intake 0-4 h” value ([4]; single oral dose (DA 23.1 mg/kg, DB 26.8 mg/kg), 0-4 h, N = 15) was 7.3 gram, the “Mean cumulative food intake 0-6 h” value ([4]; single oral dose (DA 23.1 mg/kg, DB 26.8 mg/kg), 0-6 h, N = 15) was 10.3 gram and the “Mean cumulative food intake 0-8 h” value ([4]; single oral dose (DA 23.1 mg/kg, DB 26.8 mg/kg), 0-8 h, N = 15) was 12.5 gram. The “Mean cumulative food intake 0-24 h” value ([4]; single oral dose (DA 23.1 mg/kg, DB 26.8 mg/kg), 0-24 h, N = 15) was 20.2 gram, the “cumulative food intake as compared with vehicle” value ([4]; single oral dose, all indicated time intervals) was “reduced cumulative food intake during all the indicated time intervals as compared with vehicle” and the “body weight gain as compared to vehicle treatment” value ([5]; DIO mice on high-fat diet, 26.8 mg/kg DB or 23.1 mg/kg DA BID) was “less body weight gain as compared to vehicle treatment”. The “Mean food consumption per animal for 24-h interval, Day 0” value ([5]; DIO mice, BID oral (DA 23.1 mg/kg, DB 26.8 mg/kg), Day 0) was 2.2 gram, the “Mean food consumption per animal for 24-h interval, Day 7” value ([5]; DIO mice, BID oral (DA 23.1 mg/kg, DB 26.8 mg/kg), Day 7) was 1.7 gram and the “Mean food consumption per animal for 24-h interval, Day 14” value ([5]; DIO mice, BID oral (DA 23.1 mg/kg, DB 26.8 mg/kg), Day 14) was 1.9 gram. The “Mean food consumption per animal for 24-h interval, Day 21” value ([5]; DIO mice, BID oral (DA 23.1 mg/kg, DB 26.8 mg/kg), Day 21) was 2.3 gram, the “Mean food consumption per animal for 24-h interval, Day 28” value ([5]; DIO mice, BID oral (DA 23.1 mg/kg, DB 26.8 mg/kg), Day 28) was 2.0 gram and the “Mean food consumption per animal for 24-h interval, Day 35” value ([5]; DIO mice, BID oral (DA 23.1 mg/kg, DB 26.8 mg/kg), Day 35) was 2.4 gram. For the same molecule, the “Mean food consumption per animal for 24-h interval, Day 42” value ([5]; DIO mice, BID oral (DA 23.1 mg/kg, DB 26.8 mg/kg), Day 42) was 2.0 gram, the “Mean food consumption per animal for 24-h interval, Day 49” value ([5]; DIO mice, BID oral (DA 23.1 mg/kg, DB 26.8 mg/kg), Day 49) was 2.3 gram and the “Mean food consumption per animal for 24-h interval, Day 56” value ([5]; DIO mice, BID oral (DA 23.1 mg/kg, DB 26.8 mg/kg), Day 56) was 1.7 gram. For the same molecule, the “Mean normalized body weight (% of baseline), study day 0” value ([5]; DIO mice, BID oral (DA 23.1 mg/kg, DB 26.8 mg/kg), day 0) was 100.0 % of baseline, the “Mean normalized body weight (% of baseline), study day 4” value ([5]; DIO mice, BID oral (DA 23.1 mg/kg, DB 26.8 mg/kg), day 4) was 101.1 % of baseline and the “Mean normalized body weight (% of baseline), study day 7” value ([5]; DIO mice, BID oral (DA 23.1 mg/kg, DB 26.8 mg/kg), day 7) was 100.6 % of baseline. For the same molecule, the “Mean normalized body weight (% of baseline), study day 9” value ([5]; DIO mice, BID oral (DA 23.1 mg/kg, DB 26.8 mg/kg), day 9) was 99.5 % of baseline, the “Mean normalized body weight (% of baseline), study day 11” value ([5]; DIO mice, BID oral (DA 23.1 mg/kg, DB 26.8 mg/kg), day 11) was 98.8 % of baseline and the “Mean normalized body weight (% of baseline), study day 14” value ([5]; DIO mice, BID oral (DA 23.1 mg/kg, DB 26.8 mg/kg), day 14) was 99.6 % of baseline. The “Mean normalized body weight (% of baseline), study day 16” value ([5]; DIO mice, BID oral (DA 23.1 mg/kg, DB 26.8 mg/kg), day 16) was 98.5 % of baseline, the “Mean normalized body weight (% of baseline), study day 18” value ([5]; DIO mice, BID oral (DA 23.1 mg/kg, DB 26.8 mg/kg), day 18) was 98.4 % of baseline and the “Mean normalized body weight (% of baseline), study day 21” value ([5]; DIO mice, BID oral (DA 23.1 mg/kg, DB 26.8 mg/kg), day 21) was 99.9 % of baseline. For the same molecule, the “Mean normalized body weight (% of baseline), study day 23” value ([5]; DIO mice, BID oral (DA 23.1 mg/kg, DB 26.8 mg/kg), day 23) was 99.9 % of baseline, the “Mean normalized body weight (% of baseline), study day 25” value ([5]; DIO mice, BID oral (DA 23.1 mg/kg, DB 26.8 mg/kg), day 25) was 100.0 % of baseline and the “Mean normalized body weight (% of baseline), study day 28” value ([5]; DIO mice, BID oral (DA 23.1 mg/kg, DB 26.8 mg/kg), day 28) was 100.0 % of baseline. The “Mean normalized body weight (% of baseline), study day 30” value ([5]; DIO mice, BID oral (DA 23.1 mg/kg, DB 26.8 mg/kg), day 30) was 100.0 % of baseline, the “Mean normalized body weight (% of baseline), study day 32” value ([5]; DIO mice, BID oral (DA 23.1 mg/kg, DB 26.8 mg/kg), day 32) was 102.0 % of baseline and the “Mean normalized body weight (% of baseline), study day 34” value ([5]; DIO mice, BID oral (DA 23.1 mg/kg, DB 26.8 mg/kg), day 34) was 101.9 % of baseline. The “Mean normalized body weight (% of baseline), study day 36” value ([5]; DIO mice, BID oral (DA 23.1 mg/kg, DB 26.8 mg/kg), day 36) was 101.5 % of baseline, the “Mean normalized body weight (% of baseline), study day 39” value ([5]; DIO mice, BID oral (DA 23.1 mg/kg, DB 26.8 mg/kg), day 39) was 102.6 % of baseline and the “Mean normalized body weight (% of baseline), study day 41” value ([5]; DIO mice, BID oral (DA 23.1 mg/kg, DB 26.8 mg/kg), day 41) was 103.1 % of baseline. For the same molecule, the “Mean normalized body weight (% of baseline), study day 46” value ([5]; DIO mice, BID oral (DA 23.1 mg/kg, DB 26.8 mg/kg), day 46) was 103.9 % of baseline, the “Mean normalized body weight (% of baseline), study day 49” value ([5]; DIO mice, BID oral (DA 23.1 mg/kg, DB 26.8 mg/kg), day 49) was 104.7 % of baseline and the “Mean normalized body weight (% of baseline), study day 51” value ([5]; DIO mice, BID oral (DA 23.1 mg/kg, DB 26.8 mg/kg), day 51) was 104.9 % of baseline. The “Mean normalized body weight (% of baseline), study day 53” value ([5]; DIO mice, BID oral (DA 23.1 mg/kg, DB 26.8 mg/kg), day 53) was 105.2 % of baseline, the “Mean normalized body weight (% of baseline), study day 56” value ([5]; DIO mice, BID oral (DA 23.1 mg/kg, DB 26.8 mg/kg), day 56) was 106.7 % of baseline and the “food consumption compared to vehicle-dosed mice” value ([5]; DIO mice, BID oral, 56-day treatment) was “nominally decreased food consumption compared to vehicle-dosed mice”. The “body weight gain, DA compared with DB” value ([5]; DIO mice, Day 34 to Day 56) was “body weight gain was less” and the “food consumption, DA compared with DB” value ([5]; DIO mice, all indicated measurement days except for Day 42) was “food consumption was less”.
